Results on one molecule are retold here after patent US8097422B2, “Kir channel modulators” (Salk Institute for Biological Studies, priority 2007, dated 2012).

Molecules are shown by their SMILES.

Assay type in all cases: cell-based
The target of experiment [1] is T1, Kir3 channels (Mus musculus, UniProt P48542).
T1 construct: other: patch-clamp; other: 100 mM
T1 sequence (P48542 1-425): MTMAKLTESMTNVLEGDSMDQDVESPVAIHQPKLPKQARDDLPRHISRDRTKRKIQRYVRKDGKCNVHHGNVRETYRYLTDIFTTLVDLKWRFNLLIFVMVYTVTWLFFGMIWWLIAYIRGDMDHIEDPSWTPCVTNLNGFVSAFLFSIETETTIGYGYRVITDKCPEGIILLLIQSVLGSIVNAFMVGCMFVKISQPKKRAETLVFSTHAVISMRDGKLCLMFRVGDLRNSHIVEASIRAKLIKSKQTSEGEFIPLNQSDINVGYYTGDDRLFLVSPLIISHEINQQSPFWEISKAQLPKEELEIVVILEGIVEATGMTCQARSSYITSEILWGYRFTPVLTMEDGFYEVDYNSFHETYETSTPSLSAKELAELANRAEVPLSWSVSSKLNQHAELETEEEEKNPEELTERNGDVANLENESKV
Briefly: patch-clamp determination of ion transport activity: activation of Kir3 channels. The note with it: read-out: Maximal activation of Kir3 channels relative to that of 100 mM EtOH. From the text: (§1) It has been determined that inwardly rectifying potassium (Kir) channels are regulated directly by small molecule alcohol compounds. Three-dimensional crystallographic analysis of Kir channels has elucidated atomic details of binding pocket interactions with 2-methyl-2,4-pentanediol (MPD). MPD inhibits Kir2 channel activity and activates Kir3 channel activity. Amino acid substitutions in this hydrophobic pocket of the channel protein may alter the response to MPD. As determined by patch-clamp determinations of ion transport activity, a racemic mixture of 2-methyl-2,4-pentanediol, (±)MPD, activates Kir3 channels with an EC50 of >200 mM and inhibits Kir2 homotetramer channels with an IC50 of ˜200 mM. […] Bupivacaine inhibits Kir3.1/3.4 and Kir3.1/3.2 channels with an IC50 of ˜20-40 micromolar.
(§2) The following also were observed. Maximal activation of Kir3 channels by 100 mM (±)MPD is 280% that of 100 mM EtOH. Maximal activation of Kir3 channels by 100 mM R(−)2 methyl-2,4-pentanediol is 60% that of 100 mM (±)MPD. Maximal activation of Kir3 channels by 100 mM 3-methyl-1,3,5-pentanetriol is 70% that of 100 mM (±)MPD. Maximal activation of Kir3 channels by 100 mM 2,5-dimethyl-1,2,6-hexanetriol is 70% that of 100 mM (±)MPD. Maximal activation of Kir3 channels by 100 mM (±) 2,4-pentanediol is 50% that of 100 mM (±)MPD.
A general note: Patch clamp records ionic current or voltage across a cell membrane.

For experiment [2], the system named is Kir3 channels. Described as above. The note with it: Kir3 activation or Kir2 inactivation.
From the text: as §1, §2

In experiment [3] the target is T2, Kir2 homotetramer channels (Mus musculus, UniProt P35561).
T2 construct: expressed in transfected cells; host or cells: HEK293
T2 sequence (P35561 whole entry): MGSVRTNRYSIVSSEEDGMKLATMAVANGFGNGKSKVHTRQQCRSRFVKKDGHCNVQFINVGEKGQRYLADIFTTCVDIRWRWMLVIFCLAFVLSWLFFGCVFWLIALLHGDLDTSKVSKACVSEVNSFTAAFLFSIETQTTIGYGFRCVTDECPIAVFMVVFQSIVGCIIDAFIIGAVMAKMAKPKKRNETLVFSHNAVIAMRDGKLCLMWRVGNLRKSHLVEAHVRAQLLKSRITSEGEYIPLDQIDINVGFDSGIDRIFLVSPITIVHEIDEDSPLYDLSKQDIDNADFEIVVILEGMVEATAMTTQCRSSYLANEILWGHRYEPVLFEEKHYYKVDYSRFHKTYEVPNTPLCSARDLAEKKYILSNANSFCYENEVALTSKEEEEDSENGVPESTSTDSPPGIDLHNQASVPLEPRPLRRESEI
Briefly: patch-clamp determination of ion transport activity: inhibition of Kir2 channels (Kir2.1 expressed in HEK293 cells). As to conditions: as stated in the detailed description; read-out: IC50 for inhibition of Kir 2.1 channels.
From the text: as §1
The effect of MPD on Kir2 channel activity was analyzed further. […] The fractional current remaining is plotted as a function of MPD concentration. The response for each cell was fit with the Hill equation. The average IC50 and Hill coefficients are shown (n=6).

Broadly, the IC50 is the concentration that gives 50% inhibition. On to `CC(O)CC(C)(C)O` (racemic) [MPD, 2-methyl-2,4-pentanediol], for which the Emax at 100000 µM in experiment [1] is 280%. For the same molecule, in experiment [2], the “time course of inactivation or activation after application” value is given as “within seconds”. The IC50 in experiment [3] was roughly 100 mM.
